Assays:
[1] = Solvolytic defluoridation of fluoridated organotrifluoroborates by 19F-NMR; assay type: physicochemical; conditions: 200 mM phosphate buffer pH 7.5, 19F NMR; for k(solvolysis): pseudo-first-order fit; for half-life: solvolytic defluoridation, read-out: half-life, t1/2
Procedure: The following is are representative examples of testing of solvolytic defluoridation of fluoridated organoborates as shown in FIG. 1A to FIG. 1FF and Table 1. Solutions of the fluoridated organotrifluoroborates were made by dissolving 30 mg of the fluoridated organotrifluoroborate into 1 mL of 20% ethanol/acetonitrile.
As the fluoridated organotrifluoroborate salts were often contaminated with a significant amount of free fluoride, a silica column was used to remove the free fluoride from the organotrifluoroborate solution. After loading the crude reaction onto the silica column, the fractions containing the desired organotrifluoroborate were eluted and combined to form a combined solution. In view of the strong stability of the fluoridated organotrifluoroborate in organic solvent, 20% of the combined solution was stored in an NMR tube and this sample served as the “zero” minute time point. A purified organotrifluoroborate salt was isolated from the remaining portion of the combined solution (remaining 80% of the combined solution) by removing the organic solvent from the combined solution by vacuum. Removal of the organic solvent from the combined solution gave the purified fluoridated alkylbornate salt in the form of a white solid. The dry and purified fluoridated organotrifluoroborate salt was re-dissolved into 3 mL of 200 mM phosphate buffer. Solvolytic defluoridation started immediately upon dissolution of the fluoridated organotrifluoroborate salt into phosphate buffer, and accordingly, the time was recorded at the moment of dissolution. The progress of solvolytic defluoridation of the fluoridated organotrifluoroborate salt was monitored using ^19F NMR spectroscopy. General principles, methods and background relating to the use of ^19F NMR spectroscopy for monitoring defluoridation are known, and may be found in, for example, Ting et al. (2008, J. Org. Chem. 73; 4662-70; Harwig et al. (2008) Tetrahedron Letters 49:3152-56; and Ting et al. (2008) Journal of Fluorine Chemistry 129:349-58. For each time point, solvolytic defluoridation data was collected using a 300 MHz ^19F NMR spectrometer (Bruker). ^19F NMR spectroscopic tracers for the fluoridated organotrifluoroborate salt at different times are shown in FIG. 1A. Use of ^19F-NMR to measure solvolytic defluoridation provides a useful model for measuring solvolytic 18F-defluoridation because if one F is lost, all are lost. Moreover, it is understood that the kinetic isotope effect in terms of B—F bond solvolysis is negligible. […] The degree of solvolytic defluoridation of the fluoridated organotrifluoroborate salt was plotted as a function of time, for example, as shown in FIG. 1B for Compound 6 of Table 1. ^19F NMR spectroscopic tracers for the fluoridated organotrifluoroborate salts of compounds listed in Table 1 at different times are shown in FIGS. 1A, 1C, 1E, 1G, 1I, 1K, 1M, 1O, 1Q, 1S, 1U, 1W, 1Y, 1AA, 1CC, and 1EE, and the degree of solvolytic defluoridation of the compounds as a function of time is shown in FIGS. 1B, 1D, 1F, 1H, 1J, 1L, 1N, 1P, 1R, 1T, 1V, 1X, 1ZZ, 1BB, 1DD, and 1FF.
The time curves shown in FIGS. 1B and 1D were fitted and a rate constant, ksolvolysis, for each time curve was calculated. As a measure of the stability of the fluoridated organoborate to solvolytic defluoridation, pkB—F values were calculated using the equation pkB—F=−log(ksolvolysis). In addition to pkB—F values, observed solvolytic defluoridation half-life, t1/2, values and rate constants, ksolvolysis, for a number of different fluoridated organoborates are listed in Table 1.

[2] = pKa of the carboxylic acid carrying the same moiety as the RBF3 compound; cited from earlier work
[3] = Stability of 18F-radiolabeled organotrifluoroborate in plasma by HPLC; assay type: in vitro ADME; conditions: 18F-labelled, 37° C., 150 mins, in vitro test n=3
Procedure: 1.1 mCi of ^18F-Compound 10 (^18F-ammoniomethyltrifluoroborate) was mixed with 100 μL of plasma to form a ^18F-Compound 10-plasma mixture, and then incubated at 37° C. for two hours. 200 uL of acetonitrile (ACN) was then added to the ^18F-Compound 10-plasma mixture to precipitate the protein from the mixture. The precipated protein portion was separated from the mixture by filtration with 40 μm filter paper, and the clear filtrate was injected into an HPLC for stability analysis. Chromatograms for independent HPLC tests of Rhodamine-Compound 10 of Table 1 at 0 minutes (A), 80 minutes (B), 150 minutes (C), 0 minutes (D), 150 minutes (E), and 150 minutes (F) are shown in FIG. 4A through FIG. 4F.

[4] = Stability of Rhodamine-BF3 conjugates in plasma by TLC; assay type: in vitro ADME, mice; conditions: tested as Rhodamine B conjugate, 37° C., 2 hours, fluorescence analysis
Procedure: The symbols A, B, C represent Rhodamine-ArBF3, Rhodamine-PyrBF3, and […] of Table 1, respectively. The subscript numbers 1, 2, 3 represent different test conditions: Plasma 1, Plasma 2 and PBS buffer (Plasma 1 and Plasma 2 were acquired from different mice).
The following is a representative example of testing of solvolytic defluoridation of a fluoridated organotrifluoroborate as shown in FIG. 3. 2 nmol Rhodamine-BF3 was added into 100 μL plasma, and then incubated at 37° C. After 2 hours, 200 μL acetonitrile (ACN) was added to precipitate the protein from the solution. The crude was filtered with 40 μm filter paper, and then a reddish purple solution was achieved. 1 μL of this solution was loaded on the TLC plate. The TLC plate was developed by 15% methanol/DCM. The TLC chromatograms for an aryltrifluoroborate (Rhodamine-ArBF3), Rhodamine-PyrBF3, and a quaternary ammoniomethyltrifluoroborate (Rhodamine-Compound 10 of Table 1) are shown as FIG. 3.
In the TLC chromatograms, Rhodamine B was conjugated with the trifluoroborate to trace the decomposition. The hydrolyzed product lost the negative charge, and therefore migrated much more rapidly than the precursor.

Row | SMILES | half-life [1] [h] | decomposition in plasma by HPLC [3] | pk (solvolysis) = −log k(solvolysis) [1] | k(solvolysis) [1] | pKa of Corresponding COOH [2] | decomposition (hydrolyzed product) on TLC after incubation in plasma [4]
1 | C[n+]1ccn(C[B-](F)(F)F)c1 [Compound 15] | 4.43 | – | 2.59 | 0.00259 min − 1 | – | –
2 | F[B-](F)(F)COCc1ccccc1 [Compound 3] | 2.42 | – | 2.32 | 0.00476 min − 1 | 3.53 | –
3 | F[B-](F)(F)C[n+]1ccccc1 [Compound 14] | 178 | – | 4.19 | 6.45 × 10^−5 min − 1 | 2.14 | –
4 | C#CC[N+](C)(C[B-](F)(F)F)C[B-](F)(F)F [Compound 18] | 47 | – | 3.61 | 0.000246 min − 1 | – | –
5 | C[S+](C[B-](F)(F)F)c1ccccc1 (stereo not shown) [Compound 12] | 7670 | – | 5.82 | 1.5 × 10^−5 min − 1 | – | –
6 | O=C(c1ccccc1)[B-](F)(F)F [Compound 8, benzoytrifluoroborate] | – | – | 4.0700 | – | 2.35 | –

Second part, led by results:

Row | half-life [1] [h] | decomposition in plasma by HPLC [3] | SMILES | pk (solvolysis) = −log k(solvolysis) [1] | k(solvolysis) [1] | pKa of Corresponding COOH [2] | decomposition (hydrolyzed product) on TLC after incubation in plasma [4]
7 | 0.117 | – | C=C[B-](F)(F)F [Compound 2, vinyltrifluoroborate] | 1.01 | 0.099 min − 1 | 4.25 | –
8 | 2500 | – | F[B-](F)(F)C(Cl)Cl [Compound 11] | 5.3372 | 4.6 × 10^−5 min − 1 | 1.29 | –
9 | 5.77 | – | C[N+](C)(CC(=O)O)C[B-](F)(F)F [Compound 17] | 2.70 | 0.0020 min − 1 | – | –
10 | 65.5 | – | CC[NH+](CC)C[B-](F)(F)F [Compound 6] | 3.7554 | 0.000175 min − 1 | 2.34 | –
11 | 172 | – | COC(=O)C[N+](C)(C)C[B-](F)(F)F [Compound 16] | 4.17 | 0.0000673 min − 1 | – | –
12 | 38.5 | – | O=C(CCCCO)[B-](F)(F)F [Compound 5] | 3.5249 | 0.000298 min − 1 | 2.5 | –
13 | 367 | almost no decomposition was observed | C#CC[N+](C)(C)C[B-](F)(F)F [Compound 10] | 4.5036 | 3.14 × 10^−5 min − 1 | 1.83 | almost no hydrolyzed product was detected
14 | 0.0383 to 0.05 | – | CCCC[B-](F)(F)F [Compound 1, butyltrifluoroborate] | 0.52 | 0.3 min − 1 | 4.81 | –
15 | 11 | – | F[B-](F)(F)CBr [Compound 4, bromomethyltrifluoroborate] | 2.98 | 0.000768 min − 1 | 2.86 | –

— US11207432B2, “Substituted organofluoroborates as imaging agents” (THE UNIVERSITY OF BRITISH COLUMBIA, priority 2013, dated 2021)
